From patent publication US12606551B2, “Salt of tetrahydroisoquinoline derivative, preparation method therefor, and medical use thereof” (ZHEJIANG HISUN PHARMACEUTICAL CO., LTD., priority 2020, dated 2026) come the findings set out here.

The assay deals with T1, AT1R (Homo sapiens, UniProt P30556).
T1 construct: Tb (terbium) label on the receptor; expressed in transfected cells
T1 sequence (P30556 1-359): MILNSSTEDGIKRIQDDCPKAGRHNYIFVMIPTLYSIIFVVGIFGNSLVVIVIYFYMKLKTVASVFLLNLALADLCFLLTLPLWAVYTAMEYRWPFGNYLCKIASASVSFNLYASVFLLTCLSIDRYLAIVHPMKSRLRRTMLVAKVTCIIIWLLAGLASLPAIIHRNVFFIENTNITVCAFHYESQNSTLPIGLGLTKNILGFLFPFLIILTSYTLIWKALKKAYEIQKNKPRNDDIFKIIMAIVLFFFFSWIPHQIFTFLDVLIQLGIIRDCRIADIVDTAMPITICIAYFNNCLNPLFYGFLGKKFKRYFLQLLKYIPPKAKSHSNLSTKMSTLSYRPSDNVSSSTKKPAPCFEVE
Nature of the assay: Antagonistic activity against AT1R (same method with Tb-labeled-AT1R cells). The class given is binding. The method, then: (12) Similarly, the IC50 of the antagonistic activity of the compounds of the present invention against AT1R was tested according to basically the same method, except that Tb-labeled-AT2R cells were replaced by Tb-labeled-AT1R cells.

Broadly, the IC50 is the point on the concentration scale where inhibition reaches its midpoint. A lower IC50 goes with greater potency. In turn, `COc1ccc(COc2c(OC)ccc3c2C[C@@H](C(=O)[O-])N(c2nc4ccc(F)cc4o2)C3)nc1.[Na+]` [Compound 1] had an IC50 above 10 µM.
